36 compounds from ChEMBL document CHEMBL6109114, “Design, synthesis, and biological evaluation of 4-(2-fluorophenoxy)pyridine derivatives as novel FLT3-ITD inhibitors” (Eur J Med Chem, 2025) can be followed below.

A value given as a limit tells only on which side of the number the result lay.

The test system of test [1] is BaF3. As to the kind of experiment: Antiproliferative activity against mouse BaF3 cells harbouring FLT3-ITD assessed as inhibition of cell growth measured after 3 days by celltiter-glo luminescent cell viability assay. Type of test: functional, cell-based. The note with it: BaF3, 72 h.
Test [2] concerns BaF3. As to the kind of experiment: Antiproliferative activity against mouse BaF3 cells harbouring VEGFR2 assessed as inhibition of cell growth measured after 3 days by celltiter-glo luminescent cell viability assay. Type of test: functional, cell-based. To be noted: BaF3, 72 h. On the technique in general: In ATP-based viability assays light output follows the ATP content of the culture.

The subject of test [3] is BaF3. As to the kind of experiment: Antiproliferative activity against wild type mouse BaF3 cells assessed as inhibition of cell growth measured after 3 days by celltiter-glo luminescent cell viability assay. Type of test: functional, cell-based. To be noted: BaF3, 72 h.
Test [4] deals with MOLM-13. As to the kind of experiment: Induction of apoptosis in human MOLM-13 cells assessed as viable cells at 0.1 uM incubated for 48 hrs by Annexin V-FITC/PI staining based flow cytometry analysis (reference value: 91.9%). It counts as functional. To be noted: read-out: Activity. On the technique in general: A flow cytometer gives signals particle by particle.
The subject of test [5] is MOLM-13. As to the kind of experiment: Induction of apoptosis in human MOLM-13 cells assessed as early apoptotic cells at 0.1 uM incubated for 48 hrs by Annexin V-FITC/PI staining based flow cytometry analysis (reference value: 4.93%). It counts as functional.
The test system of test [6] is MOLM-13. Description: Induction of apoptosis in human MOLM-13 cells assessed as late apoptotic cells at 0.1 uM incubated for 48 hrs by Annexin V-FITC/PI staining based flow cytometry analysis (reference value: 3.10%). It counts as functional.
Test [7] has as its system MOLM-13. Description: Induction of apoptosis in human MOLM-13 cells assessed as necrotic cells at 0.1 uM incubated for 48 hrs by Annexin V-FITC/PI staining based flow cytometry analysis (reference value: 0.077%). Type of test: functional.
For test [8], the system named is MOLM-13. Description: Induction of cell cycle arrest in human MOLM-13 cells assessed as accumulation of cells at G1 phase at 0.1 uM incubated for 48 hrs (reference value: 40.3%). It counts as functional.
Test [9] concerns MOLM-13. As to the kind of experiment: Induction of cell cycle arrest in human MOLM-13 cells assessed as accumulation of cells at S phase at 0.1 uM incubated for 48 hrs (reference value: 41.6%). It counts as functional.
Test [10] concerns MOLM-13. Description: Induction of cell cycle arrest in human MOLM-13 cells assessed as accumulation of cells at G2 phase at 0.1 uM incubated for 48 hrs (reference value: […]). Type of test: functional.
Test [11] relates to MOLM-13. Description: Antitumor activity against human MOLM-13 xenografted in male nude mouse assessed as tumor growth inhibition at 20 mg/kg, po administered once daily for 14 days by vernier caliper method relative to control. To be noted: MOLM-13, 336 h, time 14 day, read-out: TGI. It counts as functional.

Usually IC50 stands for the concentration that gives 50% inhibition. Turning to `Cc1cc(=O)n(-c2cc(Cl)ccc2F)nc1C(=O)Nc1ccc(Oc2ccnc(NC(=O)N3CCC(C)CC3)c2)c(F)c1`, the IC50 was 4160 nM in the test on BaF3 [1], 5510 nM in the test with BaF3 [2] and > 10000 nM with BaF3 [3].
`Cc1cc(=O)n(-c2ccc(C#N)cc2)nc1C(=O)Nc1ccc(Oc2ccnc(NC(=O)N3CC(O)C3)c2)c(F)c1`: the 50% inhibitory concentration (IC50) in the test with BaF3 [1] and in the test with BaF3 [3] was > 10000 nM in each case.
Take `CNC(=O)c1cc(Oc2ccc(NC(=O)Nc3ccc(Cl)c(C(F)(F)F)c3)cc2)ccn1` [SORAFENIB]: the results for the concentration for half-maximal inhibition (IC50) in the test on BaF3 [1] and with BaF3 [2] were 100 nM and 18 nM, respectively. Further, the viability at 0.1 µM with MOLM-13 [4] came to 25.7%. Moreover, the Activity in the test with MOLM-13 [5] worked out at 26.7%; in the test on MOLM-13 [6], 47%; in the test with MOLM-13 [7], 0.66%; with MOLM-13 [8] it was 62.9%; in the test with MOLM-13 [9], 35.4%; in the test with MOLM-13 [10], 0%.
Regarding `Cc1cc(=O)n(-c2ccc(F)cc2)nc1C(=O)Nc1ccc(Oc2ccnc(NC(=O)N3CC(O)C3)c2)c(F)c1`, the IC50 in the test with BaF3 [1] was 490 nM; in the test with BaF3 [2], 770 nM; in the test with BaF3 [3], > 10000 nM.
For the compound `Cc1cc(=O)n(-c2ccc(Cl)c(F)c2)nc1C(=O)Nc1ccc(Oc2ccnc(NC(=O)N3CC(O)C3)c2)c(F)c1`, the figures for the IC50 in the test on BaF3 [1], with BaF3 [2] and with BaF3 [3] were 560 nM, 790 nM and > 10000 nM, respectively.
On to `Cc1cc(=O)n(-c2ccc(OC(F)(F)F)cc2)nc1C(=O)Nc1ccc(Oc2ccnc(NC(=O)N3CC(O)C3)c2)c(F)c1`, for which the IC50 was 3910 nM in the test with BaF3 [1] and > 10000 nM in the test with BaF3 [3].
`Cc1cc(=O)n(-c2ccc(C(F)(F)F)cc2)nc1C(=O)Nc1ccc(Oc2ccnc(NC(=O)N3CC(O)C3)c2)c(F)c1`: the IC50 in the test on BaF3 [1] is 990 nM; in the test on BaF3 [2] it was 1720 nM; with BaF3 [3], > 10000 nM.
In the same order, the values of `Cc1cc(F)ccc1-n1nc(C(=O)Nc2ccc(Oc3ccnc(NC(=O)N4CC(O)C4)c3)c(F)c2)c(C)cc1=O` are 770 nM, 1250 nM and > 10000 nM.
In the same order, the values of `Cc1cc(-n2nc(C(=O)Nc3ccc(Oc4ccnc(NC(=O)N5CC(O)C5)c4)c(F)c3)c(C)cc2=O)ccc1F` are 630 nM, 700 nM and > 10000 nM.
On to `COc1ccc(-n2nc(C(=O)Nc3ccc(Oc4ccnc(NC(=O)N5CC(O)C5)c4)c(F)c3)c(C)cc2=O)cc1`, for which the IC50 with BaF3 [1] is 1130 nM; in the test with BaF3 [2], 4210 nM; in the test on BaF3 [3] it was > 10000 nM.
The like results for `Cc1cc(=O)n(-c2cc(Cl)ccc2F)nc1C(=O)Nc1ccc(Oc2ccnc(NC(=O)NC3CCOCC3)c2)c(F)c1` were, in that order, 6300 nM, 2050 nM and > 10000 nM.
With `Cc1ccc(-n2nc(C(=O)Nc3ccc(Oc4ccnc(NC(=O)N5CC(O)C5)c4)c(F)c3)c(C)cc2=O)cc1`, the results for the IC50 with BaF3 [1], in the test with BaF3 [2] and in the test on BaF3 [3] were 1520 nM, 2010 nM and > 10000 nM, respectively.
Regarding `Cc1cc(=O)n(-c2cc(Cl)ccc2F)nc1C(=O)Nc1ccc(Oc2ccnc(NC(=O)N3CCC(C(C)(C)O)CC3)c2)c(F)c1`, the IC50 was 1670 nM with BaF3 [1], 2440 nM with BaF3 [2] and > 10000 nM in the test on BaF3 [3].
In the same order, the values of `Cc1cc(=O)n(-c2ccc(F)c(Cl)c2)nc1C(=O)Nc1ccc(Oc2ccnc(NC(=O)N3CC(O)C3)c2)c(F)c1` are 400 nM, 540 nM and > 10000 nM.
In the case of `Cc1cc(=O)n(-c2cc(Cl)ccc2F)nc1C(=O)Nc1ccc(Oc2ccnc(NC(=O)N3CCC(C)(O)C3)c2)c(F)c1` (stereo not given), the IC50 worked out at 610 nM in the test with BaF3 [1], 1010 nM in the test with BaF3 [2] and 7800 nM with BaF3 [3].
The like results for `Cc1cc(=O)n(-c2cccc(Cl)c2)nc1C(=O)Nc1ccc(Oc2ccnc(NC(=O)N3CC(O)C3)c2)c(F)c1` were, in that order, 350 nM, 440 nM and 9200 nM.
For the compound `Cc1cc(=O)n(-c2cc(Cl)ccc2F)nc1C(=O)Nc1ccc(Oc2ccnc(NC(=O)N3CCC(N4CCN(C)CC4)CC3)c2)c(F)c1`, the IC50 with BaF3 [1] worked out at 800 nM; in the test on BaF3 [2], 1190 nM; with BaF3 [3], 8500 nM.
The like results for `Cc1cc(=O)n(-c2cc(F)cc(Cl)c2)nc1C(=O)Nc1ccc(Oc2ccnc(NC(=O)N3CC(O)C3)c2)c(F)c1` were, in that order, 730 nM, 1040 nM and > 10000 nM.
`Cc1cc(=O)n(-c2cc(F)ccc2Cl)nc1C(=O)Nc1ccc(Oc2ccnc(NC(=O)N3CC(O)C3)c2)c(F)c1`: the IC50 in the test on BaF3 [1] was 1880 nM; with BaF3 [2], 5320 nM; with BaF3 [3] it was > 10000 nM.
In the same order, the values of `COC1CCN(C(=O)Nc2cc(Oc3ccc(NC(=O)c4nn(-c5cc(Cl)ccc5F)c(=O)cc4C)cc3F)ccn2)C1` (stereo not given) are 520 nM, 1120 nM and > 10000 nM.
`Cc1cc(=O)n(-c2cc(Cl)ccc2F)nc1C(=O)Nc1ccc(Oc2ccnc(NC(=O)NC3CC3)c2)c(F)c1`: the IC50 in the test with BaF3 [1] is 7810 nM; with BaF3 [2], 5020 nM; in the test on BaF3 [3] it was > 10000 nM.
As for `Cc1cc(=O)n(-c2cc(Cl)ccc2F)nc1C(=O)Nc1ccc(Oc2ccnc(NC(=O)N3CCC(O)C3)c2)c(F)c1` (stereo not given), the IC50 was 600 nM in the test on BaF3 [1], 1290 nM in the test with BaF3 [2] and > 10000 nM in the test on BaF3 [3].
On to `Cc1cc(=O)n(-c2ccc(I)cc2)nc1C(=O)Nc1ccc(Oc2ccnc(NC(=O)N3CC(O)C3)c2)c(F)c1`, for which the figures for the IC50 in the test with BaF3 [1] and in the test on BaF3 [3] were 4300 nM and > 10000 nM, respectively.
`Cc1cc(=O)n(-c2ccc(F)cc2F)nc1C(=O)Nc1ccc(Oc2ccnc(NC(=O)N3CC(O)C3)c2)c(F)c1`: the values for the IC50 in the test on BaF3 [1], in the test on BaF3 [2] and in the test on BaF3 [3] were 550 nM, 1410 nM and > 10000 nM, respectively.
The like results for `Cc1cc(=O)n(-c2ccc(Br)cc2)nc1C(=O)Nc1ccc(Oc2ccnc(NC(=O)N3CC(O)C3)c2)c(F)c1` were, in that order, 1380 nM, 3070 nM and > 10000 nM.
For `Cc1cc(=O)n(-c2ccc(Cl)cc2)nc1C(=O)Nc1ccc(Oc2ccnc(NC(=O)N3CC(O)C3)c2)c(F)c1`, the figures for the IC50 in the test on BaF3 [1], with BaF3 [2] and with BaF3 [3] were 610 nM, 720 nM and > 10000 nM, respectively.
Regarding `CCc1nc(C(N)=O)c(Nc2ccc(N3CCC(N4CCN(C)CC4)CC3)c(OC)c2)nc1NC1CCOCC1` [GILTERITINIB], in the test on BaF3 [1], the IC50 came to 130 nM.
On to `Cc1cc(=O)n(-c2ccccc2F)nc1C(=O)Nc1ccc(Oc2ccnc(NC(=O)N3CC(O)C3)c2)c(F)c1`, for which the IC50 with BaF3 [1] was 670 nM; in the test on BaF3 [2], 850 nM; in the test with BaF3 [3], > 10000 nM.
On to `Cc1cc(=O)n(-c2ccc(F)c(F)c2)nc1C(=O)Nc1ccc(Oc2ccnc(NC(=O)N3CC(O)C3)c2)c(F)c1`, for which the values for the IC50 in the test with BaF3 [1], in the test on BaF3 [2] and in the test with BaF3 [3] were 470 nM, 580 nM and > 10000 nM, respectively.
On to `COc1cc2nccc(Oc3ccc(NC(=O)N/N=C/c4cn(-c5ccccc5OC)nn4)cc3)c2cc1OC`, for which the IC50 came out at 5820 nM in the test with BaF3 [1] and 8070 nM with BaF3 [2].
Consider `CCN(CC)CCNC(=O)c1c(C)[nH]c(/C=C2\C(=O)Nc3ccc(F)cc32)c1C` [SUNITINIB], for which, in the test with MOLM-13 [11], the inhibition in vivo at 20 mg/kg is 73.2%.
With `Cc1cc(=O)n(-c2ccccc2Cl)nc1C(=O)Nc1ccc(Oc2ccnc(NC(=O)N3CC(O)C3)c2)c(F)c1`, the IC50 in the test on BaF3 [1] was 1870 nM; with BaF3 [2] it was 2960 nM; in the test on BaF3 [3], > 10000 nM.
For `COc1cc(F)ccc1-n1nc(C(=O)Nc2ccc(Oc3ccnc(NC(=O)N4CC(O)C4)c3)c(F)c2)c(C)cc1=O`, the IC50 in the test with BaF3 [1] was 850 nM; in the test on BaF3 [2] it was 1480 nM; in the test on BaF3 [3], > 10000 nM.
On to `Cc1cc(=O)n(-c2ccc(S(C)(=O)=O)cc2)nc1C(=O)Nc1ccc(Oc2ccnc(NC(=O)N3CC(O)C3)c2)c(F)c1`, for which the IC50 in the test with BaF3 [1] and with BaF3 [3] was > 10000 nM each time.
Take `Cc1cc(=O)n(-c2ccccc2)nc1C(=O)Nc1ccc(Oc2ccnc(NC(=O)N3CC(O)C3)c2)c(F)c1`: the figures for the IC50 with BaF3 [1], in the test on BaF3 [2] and in the test on BaF3 [3] were 700 nM, 1160 nM and > 10000 nM, respectively.
Take `Cc1cc(=O)n(-c2cc(Cl)c(F)c(Cl)c2)nc1C(=O)Nc1ccc(Oc2ccnc(NC(=O)N3CC(O)C3)c2)c(F)c1`: the IC50 in the test on BaF3 [1] was 490 nM; in the test on BaF3 [2] it was 1450 nM; in the test on BaF3 [3], > 10000 nM.
